Results from patent US20190053492A1, “SUBSTITUTED PYRIDINE COMPOUNDS AS PESTICIDES” (Bayer CropScience Aktiengesellschaft, priority 2016, published 2019).
Like-named read-outs stand apart in the source and are kept apart here.

Experiments:
[1] = log P by HPLC on reversed-phase column (C 18), EEC Directive 79/831 Annex V.A8; format: physicochemical; conditions: 55° C.; for chromatographic logP: reversed-phase HPLC column (C 18)
Method: Temperature: 55° C. […] Called log P (HCOOH) in the table. […] Called log P (neutral) in the table.

Ctenocephalides felis = Ctenocephalides felis oral test; format: in vivo; conditions: Ctenocephalides felis, po, 48 h; application rate 100 ppm in citrated cattle blood, after 2 days, adult cat fleas; read-out: efficacy (kill in %)
How it was run: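 Kill (%) was recorded at 2 days. Compound, dissolved in DMSO and diluted into citrated cattle blood, was offered to roughly 20 unfed adult C. felis through parafilm.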

Meloidogyne incognita = Meloidogyne incognita test; format: in vivo; conditions: application rate 20 ppm, after 14 days, lettuce
Method: Meloidogyne incognita Test Solvent: 125.0 parts by weight of acetone To produce a suitable active ingredient formulation, 1 part by weight of active ingredient is mixed with the stated amount of solvent and the concentrate is diluted with water to the desired concentration. Vessels are filled with sand, active ingredient solution, an egg/larvae suspension of the southern root-knot nematode (Meloidogyne incognita) and lettuce seeds. The lettuce seeds germinate and the plants develop. The galls develop on the roots. After 14 days, the nematicidal efficacy in % is determined by the formation of galls. 100% means that no galls were found; 0% means that the number of galls on the treated plants corresponds to the untreated control.

Myzus persicae = Myzus persicae spray test; format: in vivo; conditions: application rate 500 g/ha, after 6 days, Chinese cabbage leaf discs
Method: Myzus persicae—Spray Test
Solvent: 78 parts by weight of acetone • • 1.5 parts by weight of dimethylformamide
Emulsifier: alkylaryl polyglycol ether
To produce a suitable active ingredient formulation, 1 part by weight of active ingredient is dissolved with the specified parts by weight of solvent and made up with water containing an emulsifier concentration of 1000 ppm until the desired concentration is attained. To produce further test concentrations, the formulation is diluted with emulsifier-containing water.
Discs of Chinese cabbage leaves (Brassica pekinensis) infested by all stages of the green peach aphid (Myzus persicae) are sprayed with an active ingredient formulation of the desired concentration.
After 6 days, the efficacy in % is determined. 100% means that all the aphids have been killed; 0% means that no aphids have been killed.

Phaedon cochleariae = Phaedon cochleariae spray test; format: in vivo; conditions: Phaedon cochleariae, foliar, 168 h; application rate 500 g/ha, after 7 days, Chinese cabbage leaf discs; read-out: efficacy (beetle larvae killed)
How it was run: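 Larval kill read at day 7 as percent, where 100% means every larva dead and 0% none; larvae were placed on dried Brassica pekinensis leaf discs previously sprayed with the formulation (acetone/dimethylformamide solvent, alkylaryl polyglycol ether emulsifier, water).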

Spodoptera frugiperda = Spodoptera frugiperda spray test; format: in vivo; conditions: Spodoptera frugiperda, foliar, 168 h, after 7 days, maize leaf discs, read-out: efficacy (caterpillars killed)
How it was run: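 Efficacy in % was scored at 7 days against armyworm caterpillars placed on dried, compound-sprayed Zea mays leaf discs. Compound was dissolved in acetone/dimethylformamide and diluted in water with 1000 ppm alkylaryl polyglycol ether. 100% means all caterpillars were killed.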

LOGP_HCOOH ([1]; log P (HCOOH), acidic range pH 2.7, 0.1% aqueous formic acid and acetonitrile, reversed-phase column (C 18)): 4.27 | LOGP_NEUTRAL ([1]; log P, neutral range, HPLC on reversed-phase column (C 18)): 4.18 | chromatographic logP ([1]; pH 2.7, LC-MS acidic range, pH 2.7, 0.1% formic acid/acetonitrile, read-out: log P (acidic) / log P (HCOOH)): 4.27 | chromatographic logP ([1]; pH 7.8, LC-MS neutral range, pH 7.8, ammonium hydrogencarbonate/acetonitrile, read-out: log P (neutral)): 4.18
SMILES: N#Cc1ccc(CNC(=O)c2cc(-c3ccc(C(F)(F)F)cc3)cc(N(C(=O)C3CC3)C(=O)C3CC3)n2)cc1F [Example I-028, 6-[Bis(cyclopropylcarbonyl)amino]-N-(4-cyano-3-fluorobenzyl)-4-[4-(trifluoromethyl)phenyl]pyridine-2-carboxamide]
pest or weed control at 100 ppm (Ctenocephalides felis): 100% | nematicidal efficacy (formation of galls) (Meloidogyne incognita): 90% | efficacy (aphids killed) (Myzus persicae): 90% | pest or weed control at 500 g/ha (Phaedon cochleariae): 100% | pest or weed control at 100 g/ha (Spodoptera frugiperda; application rate 100 g/ha): 83% | pest or weed control at 500 g/ha (Spodoptera frugiperda; application rate 500 g/ha): 100%
